Data published in the NIST ThermoML archive (doi:10.1016/j.fluid.2017.03.011).

Columns and labels:
[1] = an = ratio of the nth substance listed; settings: 101 kPa, Liquid, a2 = 3; for electrical conductivity: Alternating current cell with electrodes; for speed of sound: Sing-around technique in a fixed-path interferometer; for mass density: Vibrating tube method; for viscosity: Falling or rolling sphere viscometry
[2] = refractive index (Na D-line) (dimensionless); an = ratio of the nth substance listed; settings: 101 kPa, Liquid, Standard Abbe refractometry, a2 = 3

CCC[N+](CCC)(CCC)Cc1ccccc1.[Cl-] [benzyltripropylammonium chloride] + CC(O)C(=O)O
Settings | electrical conductivity, [1] [S/m] | mass density, [1] [kg/m3] | refractive index, [2] | speed of sound, [1] [m/s] | viscosity, [1] [mPa·s]
293.15 K | 0.0011 | 1120.61 | 1.4944 | 1658.2 | –
298.15 K | 0.0018 | 1117.05 | 1.4926 | 1640.8 | –
303.15 K | 0.003 | 1113.49 | 1.4908 | 1624.7 | 2276.7
308.15 K | 0.0047 | 1109.92 | 1.4892 | 1607.9 | 1288.3
313.15 K | 0.0071 | 1106.36 | 1.4876 | 1592.5 | 780.5
318.15 K | 0.0103 | 1102.71 | 1.4858 | 1577.6 | 489.2
323.15 K | 0.0146 | 1099.19 | 1.4844 | 1563.7 | 319
328.15 K | 0.0201 | 1095.66 | 1.4824 | 1550.1 | 215.6
333.15 K | 0.0267 | 1092.1 | 1.4811 | 1537.3 | 150.6
338.15 K | 0.035 | 1088.54 | 1.4791 | 1525.1 | 108.5
343.15 K | 0.0443 | 1084.99 | 1.4778 | 1513.6 | 81.3

CCC[N+](CCC)(CCC)Cc1ccccc1.[Cl-] [benzyltripropylammonium chloride] + OCC(O)CO
Settings | electrical conductivity, [1] [S/m] | mass density, [1] [kg/m3] | refractive index, [2] | speed of sound, [1] [m/s] | viscosity, [1] [mPa·s]
293.15 K | 0.0058 | 1133.02 | 1.5051 | 1898.3 | –
298.15 K | 0.0085 | 1129.97 | 1.5036 | 1868.9 | –
303.15 K | 0.0117 | 1126.92 | 1.5026 | 1844.9 | 1890.5
308.15 K | 0.016 | 1123.81 | 1.5011 | 1824.4 | 1179.6
313.15 K | 0.022 | 1120.62 | 1.4999 | 1806.5 | 779.8
318.15 K | 0.0289 | 1117.51 | 1.4982 | 1790.1 | 519.3
323.15 K | 0.0374 | 1114.45 | 1.4966 | 1774.7 | 359.2
328.15 K | 0.048 | 1111.39 | 1.4953 | 1760.1 | 251.6
333.15 K | 0.0596 | 1108.32 | 1.4936 | 1745.9 | 180.1
338.15 K | 0.0741 | 1105.24 | 1.4922 | 1732.2 | 131.4
343.15 K | 0.0894 | 1102.17 | 1.4908 | 1719.2 | 97

CCC[N+](CCC)(CCC)Cc1ccccc1.[Cl-] [benzyltripropylammonium chloride] + OCCO
Settings | electrical conductivity, [1] [S/m] | mass density, [1] [kg/m3] | refractive index, [2] | speed of sound, [1] [m/s] | viscosity, [1] [mPa·s]
293.15 K | 0.0734 | 1063.63 | 1.4981 | 1762.4 | 327.9
298.15 K | 0.0883 | 1060.58 | 1.4965 | 1746.5 | 229.2
303.15 K | 0.105 | 1057.52 | 1.4952 | 1731 | 164.6
308.15 K | 0.125 | 1054.44 | 1.4939 | 1715.9 | 121
313.15 K | 0.146 | 1051.35 | 1.4924 | 1701.1 | 90.8
318.15 K | 0.17 | 1048.27 | 1.4911 | 1686.4 | 70.6
323.15 K | 0.2 | 1045.19 | 1.4895 | 1671.9 | 54.4
328.15 K | 0.228 | 1042.11 | 1.4879 | 1657.5 | 42.1
333.15 K | 0.26 | 1039.03 | 1.4864 | 1643.3 | 33.5
338.15 K | 0.292 | 1035.95 | 1.4849 | 1629.2 | 27
343.15 K | 0.328 | 1032.88 | 1.4831 | 1615.7 | 22.2

CCC[N+](CCC)(CCC)Cc1ccccc1.[Cl-] [benzyltripropylammonium chloride] + Oc1ccccc1
Settings | electrical conductivity, [1] [S/m] | mass density, [1] [kg/m3] | refractive index, [2] | speed of sound, [1] [m/s] | viscosity, [1] [mPa·s]
293.15 K | 0.0213 | 1060.26 | 1.5486 | 1699.7 | 638.4
298.15 K | 0.0295 | 1056.98 | 1.5471 | 1679.8 | 381.5
303.15 K | 0.0397 | 1053.73 | 1.5452 | 1661.7 | 237.1
308.15 K | 0.0523 | 1050.47 | 1.5436 | 1644.5 | 156.7
313.15 K | 0.0669 | 1047.19 | 1.542 | 1628 | 107
318.15 K | 0.0838 | 1043.91 | 1.5403 | 1611.9 | 76.8
323.15 K | 0.0999 | 1040.64 | 1.5386 | 1596.2 | 57.6
328.15 K | 0.118 | 1037.37 | 1.5369 | 1580.7 | 43.1
333.15 K | 0.138 | 1034.12 | 1.5352 | 1565.5 | 32.6
338.15 K | 0.162 | 1030.87 | 1.5334 | 1550.5 | 25.8
343.15 K | 0.183 | 1027.64 | 1.5317 | 1536.1 | 20.4
